This note sets out measurements from ChEMBL document CHEMBL1146013, “Amino substituted analogs of 1-phenyl-3-phenylimino-2-indolones with potent galanin Gal3 receptor binding affinity and improved solubility” (Bioorg Med Chem Lett, 2006).

Each structure is given as a SMILES string. ≈ marks a conversion by molar mass, not a printed value.

One data set concerns the target T1, Galanin receptor type 3 (Homo sapiens, UniProt O60755).
T1 sequence (O60755 whole entry): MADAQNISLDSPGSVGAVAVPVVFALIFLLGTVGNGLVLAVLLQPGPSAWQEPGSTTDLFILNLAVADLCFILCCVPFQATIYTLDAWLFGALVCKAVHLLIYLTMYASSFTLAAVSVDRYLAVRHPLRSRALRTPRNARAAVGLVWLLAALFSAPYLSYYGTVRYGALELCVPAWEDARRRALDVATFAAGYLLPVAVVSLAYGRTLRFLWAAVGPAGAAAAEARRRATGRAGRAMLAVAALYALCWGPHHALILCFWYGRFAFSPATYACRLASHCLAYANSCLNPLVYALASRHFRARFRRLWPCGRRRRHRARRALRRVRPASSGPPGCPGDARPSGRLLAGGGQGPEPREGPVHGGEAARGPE
Briefly: Displacement of [125I]galanin from human galanin Gal3 receptor.

Data set [1] in a line: Aqueous solubility at pH 7.4. Format: physicochemical.
Another data set has as its target D(1B) dopamine receptor (Homo sapiens, UniProt P21918). The data set can be described thus: Binding affinity to human dopamine D5 receptor.
For data set [2], the target named is T2, Alpha-1A adrenergic receptor (Homo sapiens, UniProt P35348).
T2 sequence (P35348 whole entry): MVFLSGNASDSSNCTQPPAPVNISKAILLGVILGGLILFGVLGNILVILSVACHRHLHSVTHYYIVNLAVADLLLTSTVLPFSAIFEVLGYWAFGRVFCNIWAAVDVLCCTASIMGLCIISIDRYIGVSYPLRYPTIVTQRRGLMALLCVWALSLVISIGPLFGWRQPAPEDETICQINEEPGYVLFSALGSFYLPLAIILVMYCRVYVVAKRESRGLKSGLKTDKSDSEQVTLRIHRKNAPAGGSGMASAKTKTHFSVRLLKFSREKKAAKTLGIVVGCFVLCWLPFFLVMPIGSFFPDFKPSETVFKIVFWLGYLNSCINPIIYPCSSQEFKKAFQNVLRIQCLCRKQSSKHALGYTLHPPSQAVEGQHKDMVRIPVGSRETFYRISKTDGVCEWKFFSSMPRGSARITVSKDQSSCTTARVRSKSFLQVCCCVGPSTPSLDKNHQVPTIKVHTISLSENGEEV
The data set can be described thus: Binding affinity to human adrenergic alpha-1A receptor.

D(1B) dopamine receptor, sequence (P21918 whole entry): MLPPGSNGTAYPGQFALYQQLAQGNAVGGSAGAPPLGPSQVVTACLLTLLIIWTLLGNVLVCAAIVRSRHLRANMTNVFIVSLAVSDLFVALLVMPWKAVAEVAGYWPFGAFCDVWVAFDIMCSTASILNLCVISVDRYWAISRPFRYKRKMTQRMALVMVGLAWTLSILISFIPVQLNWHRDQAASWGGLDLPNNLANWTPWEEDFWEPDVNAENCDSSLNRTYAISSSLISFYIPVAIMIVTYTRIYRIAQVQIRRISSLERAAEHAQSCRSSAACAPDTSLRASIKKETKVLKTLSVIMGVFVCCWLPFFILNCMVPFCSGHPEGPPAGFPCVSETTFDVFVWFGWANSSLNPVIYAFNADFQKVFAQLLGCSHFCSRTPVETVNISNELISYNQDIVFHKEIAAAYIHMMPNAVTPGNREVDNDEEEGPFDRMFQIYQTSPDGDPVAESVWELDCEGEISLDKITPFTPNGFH

As usually defined, the Ki is the dissociation constant of the complex between target and ligand, obtained from inhibition or displacement. Read a low Ki as higher affinity. By solubility is commonly meant the dissolved amount per volume that the medium holds. Higher therefore signals much dissolved substance. `CCN(CC)CCCCOc1cccc(N2C(=O)/C(=N/c3cccc(C(F)(F)F)c3)c3ccccc32)c1` came in with a Ki on Galanin receptor type 3 of 45 nM. The solubility in data set [1] was 5 µg/mL (≈ 9.81 µM). For `CCN(CC)CCOc1cccc(N2C(=O)/C(=N/c3cccc(C(F)(F)F)c3)c3ccccc32)c1`, at Galanin receptor type 3, the Ki stood at 87 nM. As for `O=C1/C(=N/c2cccc(C(F)(F)F)c2)c2ccccc2N1c1cccc(OCCN2CCCC2)c1`, the Ki turned out to be 5 nM at Galanin receptor type 3, 939 nM at D(1B) dopamine receptor and 78 nM in data set [2]. Also, the solubility in data set [1] stood at 48 µg/mL (≈ 100 µM).

On Galanin receptor type 3, `O=C1/C(=N/c2cccc(C(F)(F)F)c2)c2ccccc2N1c1cccc(OCCN2CCCCC2)c1` gave a Ki of 8 nM. Moreover, in data set [1], the concentration in solution (solubility) came to 7 µg/mL (≈ 14.2 µM). The compound `CCN(CC)C[C@H](O)COc1cccc(N2C(=O)/C(=N/c3cccc(C(F)(F)F)c3)c3ccccc32)c1` showed a Ki at Galanin receptor type 3 of 27 nM. This compound also had a solubility in data set [1] of 606 µg/mL (≈ 1180 µM).

For the compound `CN(C)CCOc1ccc(N2C(=O)/C(=N/c3cccc(C(F)(F)F)c3)c3ccccc32)cc1`, at Galanin receptor type 3, the inhibition constant Ki came to 89 nM. `O=C1/C(=N/c2cccc(C(F)(F)F)c2)c2ccccc2N1c1ccccc1` showed a Ki on Galanin receptor type 3 of 17 nM. The solubility in data set [1] was < 1 µg/mL. For the compound `O=C1/C(=N/c2cccc(C(F)(F)F)c2)c2ccccc2N1c1cccc(OCCCN2CCCC2)c1`, on Galanin receptor type 3, the Ki amounted to 49 nM. In turn, `CN(C)CCOc1cccc(N2C(=O)/C(=N/c3cccc(C(F)(F)F)c3)c3ccccc32)c1` registered a Ki on Galanin receptor type 3 of 26 nM. Take `CCN(CC)CCOc1ccc(N2C(=O)/C(=N/c3cccc(C(F)(F)F)c3)c3ccccc32)cc1`: on Galanin receptor type 3, the Ki worked out at 78 nM.

As for `CCN(CC)C[C@@H](O)COc1cccc(N2C(=O)/C(=N/c3cccc(C(F)(F)F)c3)c3ccccc32)c1`, the Ki at Galanin receptor type 3 amounted to 290 nM. Compound `CCN(CC)CCOc1ccccc1N1C(=O)/C(=N/c2cccc(C(F)(F)F)c2)c2ccccc21` displayed a Ki on Galanin receptor type 3 of 1000 nM. Regarding `CCN(CC)CCCOc1ccc(N2C(=O)/C(=N/c3cccc(C(F)(F)F)c3)c3ccccc32)cc1`, affinity at Galanin receptor type 3 was put at a Ki of 34 nM. In data set [1], the solubility worked out at 35 µg/mL (≈ 70.6 µM). In turn, `CCN(CC)CCCCOc1ccc(N2C(=O)/C(=N/c3cccc(C(F)(F)F)c3)c3ccccc32)cc1` gave a Ki at Galanin receptor type 3 of 70 nM. On to `CN(C)CCCOc1cccc(N2C(=O)/C(=N/c3cccc(C(F)(F)F)c3)c3ccccc32)c1`, for which the Ki at Galanin receptor type 3 is 29 nM. With `CCN(CC)CCCOc1cccc(N2C(=O)/C(=N/c3cccc(C(F)(F)F)c3)c3ccccc32)c1`, the Ki stood at 21 nM at Galanin receptor type 3 and 411 nM at D(1B) dopamine receptor. The same compound gave a solubility in data set [1] of 44 µg/mL (≈ 88.8 µM). Consider `CCN(CC)COc1cccc(N2C(=O)/C(=N/c3cccc(C(F)(F)F)c3)c3ccccc32)c1`, for which the Ki at Galanin receptor type 3 was 38 nM. In data set [1], this compound yielded a solubility of 48 µg/mL (≈ 103 µM). On Galanin receptor type 3, `O=C1/C(=N/c2cccc(C(F)(F)F)c2)c2ccccc2N1c1ccccc1OCCN1CCCC1` came in with a Ki of 790 nM.

`CCN(CC)CC(O)COc1cccc(N2C(=O)/C(=N/c3cccc(C(F)(F)F)c3)c3ccccc32)c1` (racemic) showed a Ki at Galanin receptor type 3 of 15 nM.
